Values of other authors as cited in patent publication US20150275270A1, “COMPOSITIONS AND METHODS FOR THE ANALYSIS OF DEGRADED NUCLEIC ACIDS” (ALTHEADX, INC., priority 2005, published 2015).

conditions: clinical studies / post-marketing reports

| SMILES | drug-induced hepatotoxicity (clinical reports) |
| --- | --- |
| Cc1c(C)c2c(c(C)c1O)CCC(C)(COc1ccc(CC3SC(=O)NC3=O)cc1)O2 (stereo not drawn) [Troglitazone, troglitazone] | severe idiosyncratic hepatocellular injury |
| CCc1ccc(CCOc2ccc(CC3SC(=O)NC3=O)cc2)nc1 (stereo not drawn) [pioglitazone] | no evidence of drug-induced hepatotoxicity |
| CN(CCOc1ccc(CC2SC(=O)NC2=O)cc1)c1ccccn1 (stereo not drawn) [rosiglitazone] | no evidence of drug-induced hepatotoxicity |
